Measured values reported in patent US9884854B2, “N-[(pyrimidinylamino)propanyl]-and N[(pyrazinylamino)proppanyl]arylcarboxamides” (Boehringer Ingelheim International GmbH, priority 2016, dated 2018).

Assays:
[1] = target: T1, human orexin 2 receptor (Homo sapiens, UniProt O43614); experiment: Assay B: OX2R IP1 (in vitro OX2R potency); assay type: cell-based; settings: 0.5 nM Orexin A concentration
T1 construct: stably expressing the full-length human orexin 2 receptor and the aequorin photoprotein; expressed in transfected cells; host or cells: CHO-K1 (CHO-K1/hOx2), co-expressing aequorin
T1 sequence (O43614 1-444): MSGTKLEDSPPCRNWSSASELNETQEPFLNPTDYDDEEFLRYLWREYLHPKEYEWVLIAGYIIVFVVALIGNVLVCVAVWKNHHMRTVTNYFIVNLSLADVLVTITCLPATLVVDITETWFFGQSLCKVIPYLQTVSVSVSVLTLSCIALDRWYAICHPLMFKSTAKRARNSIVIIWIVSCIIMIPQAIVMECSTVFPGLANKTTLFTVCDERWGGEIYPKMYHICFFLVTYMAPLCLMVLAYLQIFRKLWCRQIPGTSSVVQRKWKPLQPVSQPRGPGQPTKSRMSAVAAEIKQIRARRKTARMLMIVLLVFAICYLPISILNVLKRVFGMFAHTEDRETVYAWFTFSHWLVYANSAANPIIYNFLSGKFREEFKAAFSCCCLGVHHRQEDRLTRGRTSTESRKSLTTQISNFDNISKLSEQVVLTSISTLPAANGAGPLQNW
Excerpt: Activation of the orexin receptors expressed in cell lines results in an increase in intracellular IP3 concentration. IP1, a downstream metabolite of IP3, accumulates in cells following receptor activation and is stable in the presence of LiCl. Using Homogeneous Time-Resolved Fluorescence technology with Lumi4-Tb cryptate (commercially available from Cisbio Bioassay.) and a suitable fluorescence plate reader. […] Chem. Genomics 2009, 3, 22-32. This technique is used to characterize pharmacological modification of the orexin receptors.
B. In Vitro Testing of OX2R Potency: OX2R IP1
IP1 measurements are performed in CHO-K1 cells stably expressing the full-length human orexin 2 receptor and the aequorin photoprotein. Cells are cultivated in Ham's nutrient mixture F12 medium with 10% fetal calf serum, in a 37° C., 95% humidity and 5% CO2 incubator. The CHO-K1/hOx2 cell mass is expanded to larger cell numbers. The cells are obtained as frozen cells in cryo-vials and stored until use at −150° C. The viability of the cells after thawing is >90%. In preparation for the assay, 24 hours before the assay, the cells are thawed at 37° C. and immediately diluted with cell culture medium. After centrifugation, the cell pellet is resuspended in medium and then distributed into the assay plates with a density of 5000 cells/25 μL per well. The plates are incubated for one hour at room temperature to reduce edge effects before they are incubated for 24 hours at 37° C./5% CO2. Compounds are prepared by a 8-point serial dilution in DMSO and a final dilution step into assay buffer (HBSS with 20 mM HEPES, 0.1% BSA and 50 mM LiCl, pH 7.4) to ensure a final DMSO concentration of 1% in the assay. On the day of the assay, cells in the plate are washed twice with 60 μL assay buffer (20 μL buffer remained in the wells after washing), followed by adding 5 μL per well of compounds diluted in assay buffer. After 15 minutes of incubation at room temperature 5 μL per well of Orexin A peptide (final concentration: 0.5 nM) dissolved in assay buffer is added to the assay plate. The assay plate is incubated for 60 minutes at 37° C. Then 5 μl per well of Anti-IP1-Cryptate Tb solution and 5 μl per well of IP1-d2 dilution are added to all well of the plate and the plate is incubated for a further 60 minutes light protected at room temperature. The emission at 615 nm and 665 nm (Excitation wavelength: 320 nm) are measured using an EnVision reader (PerkinElmer). The ratio between the emission at 665 nm and 615 is calculated by the reader.
8-point four parametric non-linear curve fitting and determination of IC50 values and Hill slopes is performed using a regular analysis software e.g. AssayExplorer (Accelrys). In order to establish an agonist concentration independent parameter, Kb values are calculated using the following equation: IC50/((2+(A/EC50)n)^1/n−1) (with A=concentration agonist, EC50=EC50 agonist, n=Hill slope agonist) (see P. Leff, I. G. Dougall, Trends Pharmacol. Sci. 1993, 14(4), 110-112).
Kb values from Assay A (OX1R) and Assay B (OX2R) can then provide a selectivity ratio which is independent of the agonist (Orexin A) concentration.

[2] = Assay C: metabolic stability in human liver microsomes (Human MST); assay type: in vitro ADME; settings: pooled human liver microsomes, pH 7.6, 1 μM compound, 37° C., read-out: Human MST t1/2
Excerpt: Stability in human liver microsomes refers to the susceptibility of compounds to biotransformation in the context of selecting and/or designing drugs with favorable pharmacokinetic properties. The primary site of metabolism for many drugs is the liver. Human liver microsomes contain the cytochrome P450s (CYPs), and thus represent a model system for studying drug metabolization in vitro. Enhanced stability in human liver microsomes is associated with several advantages, including increased bioavailability and longer half-life, which can enable lower and less frequent dosing of patients. Thus, enhanced stability in human liver microsomes is a favorable characteristic for compounds that are to be used for drugs.
C. Assessment of Metabolic Stability in Human Liver Microsomes (Human MST)
The metabolic stability of the compounds according to the invention may be investigated as follows:
The metabolic degradation of the test compound is assayed at 37° C. with pooled human liver microsomes. The final incubation volume of 100 μL per time point contains TRIS buffer pH 7.6 at room temperature (0.1 M), MgCl2 (5 mM), microsomal protein (1 mg/mL) and the test compound at a final concentration of 1 μM. Following a short pre-incubation period at 37° C., the reactions are initiated by addition of beta-nicotinamide adenine dinucleotide phosphate, reduced form (NADPH, 1 mM), and terminated by transferring an aliquot into solvent after different time points. After centrifugation (10000 g, 5 min), an aliquot of the supernatant is assayed by LC-MS/MS for the amount of parent compound. The half-life (t1/2) is determined by the slope of the semi-logarithmic plot of the concentration-time profile.

[3] = test system: human MDR1 P-gp; experiment: Assay D: efflux in MDCK cells transfected with the human MDR1 gene; assay type: in vitro ADME, canine; settings: dog; MDCK-MDR1 monolayers, pH 7.4, 37° C.; read-out: MDCK efflux ratio (BA/AB)
Protocol: The MDCK assay provides information on the potential of a compound to pass the blood brain barrier. Permeability measurements across polarized, confluent MDCK-MDR1 cell monolayers grown on permeable filter supports are used as an in vitro absorption model: apparent permeability coefficients (PE) of the compounds across the MDCK-MDR1 cell monolayers are measured (pH 7.4, 37° C.) in apical-to-basal (AB) and basal-to-apical (BA) transport direction. The AB permeability (PEAB) represents drug absorption from the blood into the brain and the BA permeability (PEBA) drug efflux from the brain back into the blood via both, passive permeability as well as active transport mechanisms mediated by efflux and uptake transporters that are expressed on the MDCK-MDR1 cells, predominantly by the overexpressed human MDR1 P-gp. Identical or similar permeabilities in both transport directions indicate passive permeation, vectorial permeability points to additional active transport mechanisms. Higher PEBA than PEAB (PEBA/PEAB>5) indicates the involvement of active efflux mediated by MDR1 P-gp, which might compromises the goal to achieve sufficient brain exposure. Therefore this assay provides valuable support for selection of compounds applicable for further in vivo testing. High permeability not limited by efflux at the blood brain barrier is a favourable characteristic for compounds that are to be used for drugs acting primarily in the CNS
D. Assessment of Efflux in Madin-Darby Canine Kidney (MDCK) Cells Transfected with the Human MDR1 Gene
Apparent permeability coefficients (PE) of the compounds across the MDCK-MDR1 cell monolayers are measured (pH 7.4, 37° C.) in apical-to-basal (AB) and basal-to-apical (BA) transport direction. AB permeability (PEAB) represents drug absorption from the blood into the brain and BA permeability (PEBA) drug efflux from the brain back into the blood via both passive permeability as well as active transport mechanisms mediated by efflux and uptake transporters that are expressed on the MDCK-MDR1 cells, predominantly by the overexpressed human MDR1 P-gp. The compounds are assigned to permeability/absorption classes by comparison of the AB permeabilities with the AB permeabilities of reference compounds with known in vitro permeability and oral absorption in the human. Identical or similar permeabilities in both transport directions indicate passive permeation, vectorial permeability points to additional active transport mechanisms. Higher PEBA than PEAB indicates the involvement of active efflux mediated by MDR1 P-gp. Active transport is concentration-dependently saturable.
MDCK-MDR1 cells (1-2×10e5 cells/1 cm2 area) are seeded on filter inserts (Costar transwell polycarbonate or PET filters, 0.4 μm pore size) and cultured (DMEM) for 7 days. Subsequently, the MDR1 expression is boosted by culturing the cells with 5 mM sodium butyrate in full medium for 2 days. Compounds are dissolved in appropriate solvent (like DMSO, 1-20 mM stock solutions). Stock solutions are diluted with HTP-4 buffer (128.13 mM NaCl, 5.36 mM KCl, 1 mM MgSO4, 1.8 mM CaCl2, 4.17 mM NaHCO3, 1.19 mM Na2HPO4×7H2O, 0.41 mM NaH2PO4×H2O, 15 mM HEPES, 20 mM glucose, 0.25% BSA, pH 7.4) to prepare the transport solutions (0.1-300 μM compound, final DMSO<=0.5%). The transport solution (TL) is applied to the apical or basolateral donor side for measuring A-B or B-A permeability (3 filter replicates), respectively. The receiver side contains the same buffer as the donor side. Samples are collected at the start and end of experiment from the donor and at various time intervals for up to 2 hours also from the receiver side for concentration measurement by HPLC-MS/MS or scintillation counting. Sampled receiver volumes are replaced with fresh receiver solution.

[4] = target: T2, OX1R (Homo sapiens, UniProt O43613); settings: cited from earlier work
T2 sequence (O43613 1-425): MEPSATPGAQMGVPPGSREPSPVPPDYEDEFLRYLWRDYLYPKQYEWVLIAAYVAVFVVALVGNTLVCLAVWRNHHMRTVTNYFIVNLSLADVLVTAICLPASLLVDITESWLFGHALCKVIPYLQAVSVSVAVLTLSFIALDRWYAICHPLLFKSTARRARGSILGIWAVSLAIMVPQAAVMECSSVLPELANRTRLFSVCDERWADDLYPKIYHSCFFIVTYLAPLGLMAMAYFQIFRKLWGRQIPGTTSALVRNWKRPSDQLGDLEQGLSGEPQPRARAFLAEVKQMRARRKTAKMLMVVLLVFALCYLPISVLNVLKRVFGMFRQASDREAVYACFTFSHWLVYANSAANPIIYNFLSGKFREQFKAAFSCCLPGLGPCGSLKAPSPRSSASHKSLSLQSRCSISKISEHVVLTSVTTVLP

[5] = target: T3, OX2R (Homo sapiens, UniProt O43614); settings: cited from earlier work
T3 sequence (O43614 1-444): T1 sequence (O43614 1-444)

[6] = as described in WO03/051872 (page 16-18)
[7] = corresponds to pKb described in WO03/051872

| Compound | Kb [1] | half-life at 1 μM [2] | efflux ratio [3] | OX1R pKb [4, 6] | OX1R Kb [4, 7] | OX2R pKb [5, 6] | OX2R Kb [5, 7] |
| --- | --- | --- | --- | --- | --- | --- | --- |
| CCN(C(=O)c1cc(F)cc(F)c1-n1nccn1)[C@@H](C)CNc1ncc(C(F)(F)F)cn1 [Example 6] | 53.1 nM | > 2 h |  |  |  |  |  |
| Cc1nc(C(=O)N(C)CCNc2ncc(Br)cn2)c(-c2ccc(F)cc2)s1 [Example 6 in WO03/051872] |  |  | 0.8 | 6.4 to 7.4 | 400 to 40 nM | <6.6 to 7.4 | >250 to 40 nM |
| CCN(C(=O)c1cccc(Cl)c1-n1nccn1)[C@@H](C)CNc1ncc(C(F)(F)F)cn1 [Example 3] | 6.27 nM | 1.4 h |  |  |  |  |  |
